Laboratory results taken from ChEMBL document CHEMBL1201862, “PubChem BioAssay data set” (2004).
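The compound was tested at five concentrations on cells cultured in 96-well plates, with a 48-hour exposure period. At the GI50, growth is halved.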 Calls of active or inactive are those of the source. No stated cut-off is given here; in the data, active = GI50 up to about 1.1 µM and inactive = higher.

Legend:
Assay in all cases: NCI-60 cell line screen, 48 h
DMS-114 = tested on: DMS-114
HCT-116 = tested on: HCT-116
HT-29 = tested on: HT-29
K562 = tested on: K562
KM12 = tested on: KM12
MOLT-4 = tested on: MOLT-4
NCI-H460 = tested on: NCI-H460
NCI-H522 = tested on: NCI-H522
OVCAR-4 = tested on: OVCAR-4
RPMI-8226 = tested on: RPMI-8226
RXF 393 = tested on: RXF 393
SK-MEL-5 = tested on: SK-MEL-5
SW-620 = tested on: SW-620
TK-10 = tested on: TK-10
UACC-62 = tested on: UACC-62
UO-31 = tested on: UO-31
HCC 2998 = tested on: HCC 2998
BT-549 = tested on: BT-549
MDA-MB-435 = tested on: MDA-MB-435
NCI/ADR-RES = tested on: NCI/ADR-RES

Compound | GI50 (DMS-114) | GI50 (HCT-116) | GI50 (HT-29) | GI50 (K562) | GI50 (KM12) | GI50 (MOLT-4) | GI50 (NCI-H460) | GI50 (NCI-H522) | GI50 (OVCAR-4) | GI50 (RPMI-8226) | GI50 (RXF 393) | GI50 (SK-MEL-5) | GI50 (SW-620) | GI50 (TK-10) | GI50 (UACC-62) | GI50 (UO-31) | GI50 (HCC 2998) | GI50 (BT-549) | GI50 (MDA-MB-435) | GI50 (NCI/ADR-RES)
[N-]=[N+]=Nc1cc(=O)n(-c2ccccc2)c2ccccc12 | > 100 µM (inactive) | > 100 µM (inactive) | > 100 µM (inactive) | > 100 µM (inactive) | > 100 µM (inactive) | > 100 µM (inactive) | > 100 µM (inactive) | > 100 µM (inactive) | > 100 µM (inactive) | > 100 µM (inactive) | 63.1 µM (inactive) | > 100 µM (inactive) | > 100 µM (inactive) | > 100 µM (inactive) | > 100 µM (inactive) | > 100 µM (inactive) |  |  |  | 
CCN(CC)CCN(C)CC(C)(C)C(=O)/C=C/c1ccccc1 | 6.58 µM (inactive) |  | 11.2 µM (inactive) | 0.0693 µM (active) | 12.1 µM (inactive) | 5.16 µM (inactive) | 5.68 µM (inactive) | 9.77 µM (inactive) | 11.4 µM (inactive) | 4.15 µM (inactive) |  | 14.2 µM (inactive) | 11.5 µM (inactive) | 22.2 µM (inactive) | 12.7 µM (inactive) | 13.4 µM (inactive) | 14.5 µM (inactive) |  |  | 
O=c1c2cc(Br)ccc2nc(-c2ccccc2)n1NCC1(O)OCC(O)C(O)C1O (stereo unspecified) | > 100 µM (inactive) | > 100 µM (inactive) | > 100 µM (inactive) | > 100 µM (inactive) | > 100 µM (inactive) | 72.8 µM (inactive) | > 100 µM (inactive) | > 100 µM (inactive) | 61.8 µM (inactive) | > 100 µM (inactive) | > 100 µM (inactive) | > 100 µM (inactive) | > 100 µM (inactive) |  | > 100 µM (inactive) | > 100 µM (inactive) |  |  |  | 
COc1ccc(/C(=C\c2cc(OC)c(OC)c(OC)c2)C(=O)O)cc1 | 25.2 µM (inactive) | 29 µM (inactive) | 35.6 µM (inactive) | 25.8 µM (inactive) | 25.4 µM (inactive) | 27.5 µM (inactive) | 35.6 µM (inactive) | 21 µM (inactive) | 85.7 µM (inactive) | 27.4 µM (inactive) | 18.8 µM (inactive) | 16 µM (inactive) | 35 µM (inactive) | 87.9 µM (inactive) | 37 µM (inactive) | 25.6 µM (inactive) |  |  |  | 
CC(C)CCC[C@@H](C)C1CCC2[C@@H]3CCC4CC(CCC=C(c5cc(Cl)c(OC(=O)c6ccccc6)c(C(=O)O)c5)c5cc(Cl)c(OC(=O)c6ccccc6)c(C(=O)O)c5)CC[C@]4(C)C3CC[C@@]21C (stereo partly specified) |  | > 100 µM (inactive) | > 100 µM (inactive) | > 100 µM (inactive) | > 100 µM (inactive) | > 100 µM (inactive) | > 100 µM (inactive) | > 100 µM (inactive) | > 100 µM (inactive) | > 100 µM (inactive) | > 100 µM (inactive) | 28.8 µM (inactive) | > 100 µM (inactive) | 52.2 µM (inactive) | > 100 µM (inactive) | > 100 µM (inactive) | > 100 µM (inactive) | > 100 µM (inactive) | 72.8 µM (inactive) | > 100 µM (inactive)
COC(=O)[C@]1(C)CCC[C@]2(C)C3CC4OOC3(C=C4C(C)(C)O)CCC21 (stereo partly specified) | 30.8 µM (inactive) | 31.8 µM (inactive) | 22.6 µM (inactive) | 21.9 µM (inactive) | 42.7 µM (inactive) | 22.2 µM (inactive) | 33.5 µM (inactive) | 20.2 µM (inactive) | 72.9 µM (inactive) | 16.7 µM (inactive) |  | 34.6 µM (inactive) | 36.1 µM (inactive) | > 100 µM (inactive) | 29.2 µM (inactive) | > 10 µM (inactive) |  |  |  | 
Cn1cc(NC(=O)Nc2cc(C(=O)Nc3cc(C(=O)Nc4cc(S(=O)(=O)O)c5cc(S(=O)(=O)O)cc(S(=O)(=O)O)c5c4)n(C)c3)n(C)c2)cc1C(=O)Nc1cc(C(=O)Nc2cc(S(=O)(=O)O)c3cc(S(=O)(=O)O)cc(S(=O)(=O)O)c3c2)n(C)c1 |  | > 100 µM (inactive) | > 100 µM (inactive) | > 100 µM (inactive) | > 100 µM (inactive) | > 100 µM (inactive) | > 100 µM (inactive) | > 100 µM (inactive) | > 100 µM (inactive) | > 100 µM (inactive) | > 100 µM (inactive) | > 100 µM (inactive) | > 100 µM (inactive) | 87.1 µM (inactive) | > 100 µM (inactive) | 78.5 µM (inactive) | > 100 µM (inactive) | > 100 µM (inactive) | > 100 µM (inactive) | > 100 µM (inactive)
CC(C)NC(=O)OCc1c(COC(=O)NC(C)C)c(-c2ccc[n+](COC(=O)CC(C)(C)C)c2)n2c1CCC2 |  | > 100 µM (inactive) | > 100 µM (inactive) | > 100 µM (inactive) | > 100 µM (inactive) | > 100 µM (inactive) | 51.5 µM (inactive) | 31.6 µM (inactive) | > 100 µM (inactive) | > 100 µM (inactive) | 38.7 µM (inactive) | > 100 µM (inactive) | > 100 µM (inactive) | > 100 µM (inactive) | 39.9 µM (inactive) | 93.8 µM (inactive) | > 100 µM (inactive) | > 100 µM (inactive) | > 100 µM (inactive) | 71 µM (inactive)
CCN(CC)C(=O)CCn1cc(F)c(=O)[nH]c1=O | > 100 µM (inactive) | > 100 µM (inactive) | > 100 µM (inactive) | > 100 µM (inactive) | > 100 µM (inactive) | > 100 µM (inactive) | > 100 µM (inactive) | > 100 µM (inactive) | > 100 µM (inactive) | > 100 µM (inactive) | > 100 µM (inactive) | > 100 µM (inactive) | > 100 µM (inactive) | > 100 µM (inactive) | > 100 µM (inactive) | > 100 µM (inactive) |  |  |  | 
CCCCCCCCCCCCN(CC(O)C(O)C(OC1OC(CO)C(O)C(O)C1O)C(O)CO)C(=O)CCCCCCCCCCC (stereo unspecified) |  | 19.5 µM (inactive) | 19 µM (inactive) | 19 µM (inactive) | 20.2 µM (inactive) | 25.1 µM (inactive) | 20.5 µM (inactive) | 24.1 µM (inactive) | 21.4 µM (inactive) | 29 µM (inactive) | 26.9 µM (inactive) | 17.5 µM (inactive) | 19 µM (inactive) | 16.3 µM (inactive) | 20.2 µM (inactive) | 21.5 µM (inactive) | 18.4 µM (inactive) | 20.4 µM (inactive) | 16.8 µM (inactive) | 23.8 µM (inactive)
Cc1ccc(S(=O)(=O)OI(O)CC(F)(F)F)cc1 |  | > 100 µM (inactive) | > 100 µM (inactive) | > 100 µM (inactive) | > 100 µM (inactive) | > 100 µM (inactive) | > 100 µM (inactive) | 91.8 µM (inactive) | > 100 µM (inactive) | > 100 µM (inactive) | > 100 µM (inactive) | > 100 µM (inactive) | > 100 µM (inactive) | > 100 µM (inactive) | > 100 µM (inactive) | > 100 µM (inactive) | > 100 µM (inactive) | > 100 µM (inactive) | > 100 µM (inactive) | > 100 µM (inactive)
COc1ccc(C(=O)O)c(Cc2ccc3ccccc3c2)c1 | > 100 µM (inactive) | > 100 µM (inactive) | > 100 µM (inactive) | > 100 µM (inactive) | > 100 µM (inactive) | > 100 µM (inactive) | > 100 µM (inactive) | > 100 µM (inactive) | > 100 µM (inactive) | > 100 µM (inactive) | > 100 µM (inactive) | > 100 µM (inactive) | > 100 µM (inactive) | > 100 µM (inactive) | > 100 µM (inactive) | > 100 µM (inactive) |  |  |  | 
O=C1C(Br)=CC2(C=C1Br)CCNC1=C2C(=O)c2ncccc2C1=O |  | 0.634 µM (active) | 1.99 µM (inactive) | 0.266 µM (active) | 1.25 µM (inactive) | 1.83 µM (inactive) | 0.308 µM (active) | 0.353 µM (active) | 1.22 µM (inactive) | 0.621 µM (active) | 1 µM (active) | 0.533 µM (active) | 1.1 µM (active) | 2.32 µM (inactive) | 0.641 µM (active) | 1.07 µM (active) | 1.98 µM (inactive) | 1.42 µM (inactive) | 0.189 µM (active) | 1.82 µM (inactive)
Nc1ncnc2c1ncn2C1OC(CO)C(O)C1NS(=O)(=O)c1ccccc1 (stereo unspecified) |  | > 100 µM (inactive) | > 100 µM (inactive) | > 100 µM (inactive) | > 100 µM (inactive) | > 100 µM (inactive) | > 100 µM (inactive) | > 100 µM (inactive) | > 100 µM (inactive) | > 100 µM (inactive) | > 100 µM (inactive) | > 100 µM (inactive) | > 100 µM (inactive) | > 100 µM (inactive) | > 100 µM (inactive) | > 100 µM (inactive) | > 100 µM (inactive) | > 100 µM (inactive) | > 100 µM (inactive) | > 100 µM (inactive)
N#C[C@](CO)(NC(=O)OCc1ccccc1)C(F)F |  | > 100 µM (inactive) | > 100 µM (inactive) | > 100 µM (inactive) | > 100 µM (inactive) | > 100 µM (inactive) | > 100 µM (inactive) | > 100 µM (inactive) | > 100 µM (inactive) | > 100 µM (inactive) | > 100 µM (inactive) | > 100 µM (inactive) | > 100 µM (inactive) | > 100 µM (inactive) | > 100 µM (inactive) | > 100 µM (inactive) | > 100 µM (inactive) | > 100 µM (inactive) | > 100 µM (inactive) | > 100 µM (inactive)
